Source: patent US9657015B2, “Substituted bicyclic dihydropyrimidinones and their use as inhibitors of neutrophil elastase activity” (Boehringer Ingelheim International GmbH, priority 2014, dated 2017)
≈ marks a conversion by molar mass, not a printed value.

Columns and labels:
[1] = Drug transport across human Caco-2 cells; type: in vitro ADME; details: human, Caco-2 monolayers, pH 7.2, 37° C.; for Papp A→B at 10 µM: apical-to-basal, read-out: PEAB; for Papp B→A at 10 µM: basal-to-apical, read-out: PEBA
Excerpt: (§1) Assay for Determination of Drug Transport Across Human Caco-2 Cells
(§2) The assay provides information on the potential of a compound to pass the cell membrane, on the extent of oral absorption as well as on whether the compound is actively transported by uptake and/or efflux transporters. For the measurement of permeability across polarized, confluent human cancer colon carcinoma cells 2 (Caco-2) cell monolayers grown on permeable filter supports are used as the in vitro absorption model.
(§3) Apparent permeability coefficients (PE) of the compounds across the Caco-2 monolayers are measured (pH 7.2, 37° C.) in apical-to-basal (AB) (absorptive) and basal-to-apical (BA) (secretory) transport direction. AB permeability (PEAB) represents drug absorption from the intestine into the blood and BA permeability (PEBA) drug secretion from the blood back into the intestine via both passive permeability as well as active transport mechanisms mediated by efflux and uptake transporters that are expressed on the Caco-2 cells. The compounds are assigned to permeability/absorption classes by comparison of the AB permeabilities with the AB permeabilities of reference compounds with known in vitro permeability and oral absorption in the human. Identical or similar permeabilities in both transport directions indicate passive permeation, vectorial permeability points to additional active transport mechanisms. […] Active transport is concentration-dependently saturable.
(§4) Caco-2 cells (1-2*10^5 cells/cm^2 area) are seeded on filter inserts (Costar transwell polycarbonate or PET filters, 0.4 μm pore size) and cultured (DMEM) for 10 to 25 days. Compounds are dissolved in appropriate solvent (like DMSO, 1-20 mM stock solutions). Stock solutions are diluted with HTP-4 buffer (128.13 mM NaCl, 5.36 mM KCl, 1 mM MgSO4, 1.8 mM CaCl2, 4.17 mM NaHCO3, 1.19 mM Na2HPO4×7H2O, 0.41 mM NaH2PO4×H2O, 15 mM HEPES, 20 mM glucose, pH 7.2) to prepare the transport solutions (typically 10 μM compound, final DMSO<=0.5%). The transport solution (TL) is applied to the apical or basolateral donor side for measuring A-B or B-A permeability (3 filter replicates), respectively. The receiver side contains HTP-4 buffer supplemented with 2% BSA. Samples are collected at the start and end of experiment from the donor and at various time intervals for up to 2 hours also from the receiver side for concentration measurement by LC-MS/MS or scintillation counting. Sampled receiver volumes are replaced with fresh receiver solution.
(§5) The apparent permeability coefficients (PEAB and PEBA) of selected compounds in the Caco-2 drug transport assay described above are listed in Table 9.

[2] = Metabolic stability with human hepatocytes; type: in vitro ADME; details: human hepatocyte suspension (typically cryopreserved), 1 μM test compound, six hours, scaled with well stirred model
Experimental: Assay for the Determination of Metabolic Stability with Human Hepatocytes
The metabolic degradation of the test compound is assayed in a human hepatocyte suspension. Human hepatocytes (typically cryopreserved) are incubated in an appropriate buffer system (e.g. Dulbecco's modified eagle medium plus 3.5 μg glucagon/500 mL, 2.5 mg insulin/500 mL and 3.75 mg/500 mL hydrocortison) containing 5% species serum. Following a (typically) 30 min preincubation in an incubator (37° C., 10% CO2), 5 μl of test compound solution (80 μM; from 2 mM stock solution in DMSO diluted 1:25 with medium) are added into 395 μl hepatocyte suspension (cell density in the range 0.25-5*10^6 cells/mL, typically 1*10^6 cells/mL; final concentration of test compound 1 μM, final DMSO concentration 0.05%). The cells are incubated for six hours (incubator, orbital shaker) and samples (25 μl) are taken at 0, 0.5, 1, 2, 4 and 6 hours. Samples are transferred into acetonitrile and pelleted by centrifugation (5 min) The supernatant is transferred to a new 96-deepwell plate, evaporated under nitrogen and resuspended. The decline of parent compound is analyzed by LC-MS/MS.
The intrinsic clearance CL_[…] is calculated as follows: CL_[…]=Dose/AUC=(C0/CD)/(AUD+clast/k)*1′000/60 (C0: initial concentration in the incubation [μM], CD: cell density of vital cells [10^6 cells/mL], AUD: area under the data [μM*h], clast: concentration of last data point [μM], k: slope of the regression line for parent decline [h^−1])
The calculated in vitro hepatic intrinsic clearance can be scaled up to the intrinsic in vivo hepatic clearance and used to predict hepatic in vivo blood clearance (CL) by the use of a liver model (well stirred model): CL_[…]_INVIVO [ml/min/kg]=(CL_[…] [μL/min/10^6 cells]*hepatocellularity [10^6 cells/g liver]*liver factor [g/kg bodyweight])/1′000 CL [ml/min/kg]=CL_[…]_INVIVO [ml/min/kg]*hepatic blood flow [ml/min/kg]/(CL_[…]_INVIVO [ml/min/kg]+hepatic blood flow [ml/min/kg]) Qh [%]=CL [ml/min/kg]/hepatic blood flow [ml/min/kg]) (Hepatocellularity, human: 120*10^6 cells/g liver; liver factor, human: 25.7 g/kg bodyweight; blood flow, human: 21 ml/(min*kg))

[3] = target: neutrophil elastase in human plasma (Homo sapiens (Human), UniProt P08246); assay: Neutrophil elastase inhibitory activity in human plasma; type: biochemical; details: human plasma assay (zymosan-stimulated blood plasma), substrate 250 μM, pH 7.5
neutrophil elastase in human plasma, sequence (P08246 30-247): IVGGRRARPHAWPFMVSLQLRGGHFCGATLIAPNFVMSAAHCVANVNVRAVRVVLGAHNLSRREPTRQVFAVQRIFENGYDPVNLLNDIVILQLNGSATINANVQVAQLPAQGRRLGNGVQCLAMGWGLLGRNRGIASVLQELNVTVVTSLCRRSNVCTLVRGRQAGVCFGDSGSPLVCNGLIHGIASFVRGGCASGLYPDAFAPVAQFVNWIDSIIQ

[4] = Metabolic stability with human liver microsomes; type: in vitro ADME; details: pH 7.6; pooled human liver microsomes, 37° C., 1 μM test compound, 1 mg/ml microsomal protein, NADPH; read-out: t1/2 INVITRO
[5] = Aqueous solubility (High Throughput Method); type: physicochemical; details: McIlvaine buffer pH 6.8, 2.5% DMSO, 24 h shaking; for solubility at 24 h: McIlvaine buffer pH 6.8 with 2.5% DMSO, aqueous buffer, kinetic from dmso stock
Experimental: Assay for Determination of Aqueous Solubility (“High Throughput Method”)
Starting from a 10 mM DMSO stock solution, aliquots are diluted with acetonitrile/water (1/1) and McIlvaine buffer pH 6.8, respectively. After 24 h of shaking, the solutions or suspensions are filtered and analyzed by LC-UV. The amount dissolved in buffer is compared to the amount dissolved in the acetonitrile/water (1/1) solution. Solubility is measured from 0.001 to 0.125 mg/ml at a DMSO concentration of 2.5%. If more than 90% of the compound is dissolved in buffer, the value is marked with “>”.

[6] = target: Human neutrophil elastase (Homo sapiens (Human), UniProt P08246); assay: Human Neutrophil Elastase Assay; type: biochemical; details: substrate MeOSuc-Ala-Ala-Pro-Val-AMC 250 μM, pH 7.5, room temperature
Human neutrophil elastase, sequence (P08246 30-247): as above

[7] = Aqueous solubility (Shaked Flask Method); type: physicochemical; details: aqueous buffer, thermodynamic from solid, pH 6.8 (McIlvaine buffer)
Experimental: Assay for Determination of Aqueous Solubility (“Shaked Flask Method”)
Saturated solutions are prepared in well plates by adding an appropriate volume of selected aqueous media (typically in the range of 0.25-1.5 ml) into each well which contains a known quantity of solid drug substance (typically in the range 0.5-5.0 mg). The wells are shaken or stirred for a predefined time period (typically in a range of 2-24 h) and then filtered using appropriate filter membranes (typically PTFE-filters with 0.45 μm pore size). Filter absorption is avoided by discarding the first few drops of filtrate. The amount of dissolved drug substance is determined by UV spectroscopy or by HPLC with UV-detection. In addition, the pH of the aqueous saturated solution is measured using a glass-electrode pH meter.

[8] = tested on: Caco-2 cells; assay: Drug transport across human Caco-2 cells; type: in vitro ADME; details: Caco-2 monolayers, pH 7.2, 37° C.
Excerpt: as §1, §2, §3, §4, §5

Papp A→B at 10 µM [1] | Papp B→A at 10 µM [1] | CLhep predicted at 1 μM [2] | IC50 [3] | half-life at 1 μM [4] | solubility at 24 h [5] | IC50 [6] | solubility [7] | PEAB ([8]; apical-to-basal) | PEBA ([8]; basal-to-apical) | Aqueous solubility [5] | SMILES
20 ×10⁻⁶ cm/s | 97 ×10⁻⁶ cm/s | 2 mL/min/kg | < 1 nM | > 2.17 h | 61 µg/mL (≈ 149 µM) | < 1 nM | – | – | – | – | CN1C(=O)N(c2cccc(C(F)F)c2)C2=C(C(=O)NCC2)[C@H]1c1ccc(C#N)cc1 [Example 8A, (R)-4-(1-(3-(Difluoromethyl)phenyl)-3-methyl-2,5-dioxo-1,2,3,4,5,6,7,8-octahydropyrido[4,3-d]pyrimidin-4-yl)benzonitrile]
6.1 ×10⁻⁶ cm/s | 63 ×10⁻⁶ cm/s | – | 3.1 nM | > 2.17 h | 88 µg/mL (≈ 182 µM) | 2.3 nM | – | – | – | – | COC(=O)CN1C(=O)N(c2cccc(C(F)(F)F)c2)C2=C(C(=O)NCC2)C1c1ccc(C#N)cc1 (centres unmarked) [Example 9, Methyl 2-(4-(4-Cyanophenyl)-2,5-dioxo-1-(3-(trifluoromethyl)phenyl)-1,2,5,6,7,8-hexahydropyrido[4,3-d]pyrimidin-3(4H)-yl)acetate]
11 ×10⁻⁶ cm/s | 85 ×10⁻⁶ cm/s | 3 mL/min/kg | < 1 nM | > 2.17 h | 60 µg/mL (≈ 122 µM) | – | ≥ 10 µg/mL | – | – | – | CN1C(=O)N(c2cccc(C(F)(F)F)c2)C2=C(C(=O)NCC2)[C@H]1c1ccc(C#N)cc1-c1cnco1 [Example 30A, 4-[(4R)-3-Methyl-2,5-dioxo-1-[3-(trifluoromethyl)phenyl]-1H,2H,3H,4H,5H,6H,7H,8H-pyrido[4,3-d]pyrimidin-4-yl]-3-(1,3-oxazol-5-yl)-benzonitrile]
6.9 ×10⁻⁶ cm/s | 61 ×10⁻⁶ cm/s | 3 mL/min/kg | < 1 nM | – | 19 µg/mL (≈ 41.6 µM) | < 1 nM | ≥ 10 µg/mL | – | – | – | CN1C(=O)N(c2cccc(C(F)(F)F)c2)C2=C(C(=O)NCC2)[C@H]1c1ccc(C#N)cc1CO [Example 32A, 3-(Hydroxymethyl)-4-[(4R)-3-methyl-2,5-dioxo-1-[3-(trifluoromethyl)phenyl]-1H,2H,3H,4H,5H,6H,7H,8H-pyrido[4,3-d]pyrimidin-4-yl]benzonitrile]
5.7 ×10⁻⁶ cm/s | 100 ×10⁻⁶ cm/s | 1 mL/min/kg | < 1 nM | > 2.17 h | 84 µg/mL (≈ 167 µM) | < 1 nM | – | – | – | – | CN1C(=O)N(c2cccc(C(F)(F)F)c2)C2=C(C(=O)NCC2)C1c1ccc(C#N)cc1-c1ccncn1 (centres unmarked) [Example 35, 4-{3-Methyl-2,5-dioxo-1-[3-(trifluoromethyl)phenyl]-1H,2H,3H,4H,5H,6H,7H,8H-pyrido[4,3-d]pyrimidin-4-yl}-3-(pyrimidin-4-yl)benzonitrile]
30 ×10⁻⁶ cm/s | 83 ×10⁻⁶ cm/s | – | 2.3 nM | > 2.17 h | 42 µg/mL (≈ 80.7 µM) | < 1 nM | ≥ 10 µg/mL | – | – | – | CN1CCC2=C(C1=O)C(c1ccc(C#N)cc1-c1cnn(C)c1)N(C)C(=O)N2c1cccc(C(F)(F)F)c1 (centres unmarked) [Example 36, 4-{3,6-Dimethyl-2,5-dioxo-1-[3-(trifluoromethyl)phenyl]4H,2H,3H,4H,5H,6H,7H,8H-pyrido[4,3-d]pyrimidin-4-yl}-3-(1-methyl-1H-pyrazol-4-yl)benzonitrile]
– | – | – | 1.8 nM | – | – | 1.4 nM | – | 26 ×10⁻⁶ cm/s | 110 ×10⁻⁶ cm/s | 70 µg/mL | CN1CCC2=C(C1=O)C(c1ccc(C#N)cc1-c1cccnc1)N(C)C(=O)N2c1cccc(C(F)(F)F)c1 (centres unmarked) [Example 36.1]
32 ×10⁻⁶ cm/s | 90 ×10⁻⁶ cm/s | – | 1.1 nM | > 2.17 h | 60 µg/mL (≈ 118 µM) | < 1 nM | ≥ 10 µg/mL | – | – | – | CN1CCC2=C(C1=O)C(c1ccc(C#N)cc1-c1cnco1)N(C)C(=O)N2c1cccc(C(F)(F)F)c1 (centres unmarked) [Example 37, 4-{3,6-Dimethyl-2,5-dioxo-1-[3-(trifluoromethyl)phenyl]-1H,2H,3H,4H,5H,6H,7H,8H-pyrido[4,3-d]pyrimidin-4-yl}-3-(1,3-oxazol-5-yl)benzonitrile]
4.2 ×10⁻⁶ cm/s | 59 ×10⁻⁶ cm/s | – | < 1 nM | > 2.17 h | 78 µg/mL (≈ 161 µM) | < 1 nM | – | – | – | – | CN1CCC2=C(C1=O)C(c1ccc(C#N)cc1C(N)=O)N(C)C(=O)N2c1cccc(C(F)(F)F)c1 (centres unmarked) [Example 39, 5-Cyano-2-{3,6-dimethyl-2,5-dioxo-1-[3-(trifluoromethyl)phenyl]-1H,2H,3H,4H,5H,6H,7H,8H-pyrido[4,3-d]pyrimidin-4-yl}benzamide]
17 ×10⁻⁶ cm/s | 87 ×10⁻⁶ cm/s | 1 mL/min/kg | < 1 nM | > 2.17 h | – | < 1 nM | – | – | – | – | CN1C(=O)N(c2cccc(C(F)(F)F)c2)C2=C(C(=O)NCC2)C1c1ccc(C#N)cc1S(C)(=O)=O (centres unmarked) [Example 40, 3-Methanesulfonyl-4-{3-methyl-2,5-dioxo-1-[3-(trifluoromethyl)phenyl]-1H,2H,3H,4H,5H,6H,7H,8H-pyrido[4,3-d]pyrimidin-4-yl}benzonitrile]
